According to ChEMBL document CHEMBL1123071 (J Med Chem, 1985):

Target: T1, Dihydrofolate reductase type 1 (Escherichia coli) (UniProt P00382)
T1 sequence (whole entry): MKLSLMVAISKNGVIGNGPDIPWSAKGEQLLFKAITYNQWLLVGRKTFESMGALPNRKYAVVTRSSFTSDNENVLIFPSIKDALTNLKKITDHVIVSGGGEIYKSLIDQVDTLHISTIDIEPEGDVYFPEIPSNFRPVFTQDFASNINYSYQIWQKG
Assay: Inhibition of dihydrofolate reductase (DHFR) from Escherichia coli.
Settings: not given

| SMILES | Log 1/C |
| --- | --- |
| CC1(C)N=C(N)N=C(N)N1c1cccc(Cc2ccccc2)c1 | 6.55 |
| CC1(C)N=C(N)N=C(N)N1c1cccc(Cl)c1 | 6.22 |
| CS(=O)(=O)Oc1cccc(Cc2cnc(N)nc2N)c1 | 6.92 |
| COc1ccc(Cc2cnc(N)nc2N)cc1C(F)(F)F | 7.69 |
| CC(=O)Nc1ccc(Cc2cnc(N)nc2N)cc1[N+](=O)[O-] | 6.97 |
| CC1(C)N=C(N)N=C(N)N1c1cccc(C(F)(F)F)c1 | 5.64 |
| CC1(C)N=C(N)N=C(N)N1c1ccc(-c2ccccc2)cc1 | 5.24 |
| Nc1ncc(Cc2ccc([N+](=O)[O-])cc2)c(N)n1 | 6.2 |
| CC1(C)N=C(N)N=C(N)N1c1ccc(Cl)cc1 | 6.4 |
| COc1cccc(N2C(N)=NC(N)=NC2(C)C)c1 | 5.41 |
| CC1(C)N=C(N)N=C(N)N1CCCc1ccccc1 | 7.2 |
| CC1(C)N=C(N)N=C(N)N1c1ccc(C(=O)O)cc1 | 2.72 |
| CC1(C)N=C(N)N=C(N)N1c1cccc(C(=O)O)c1 | 3.89 |
| CCCN1C(N)=NC(N)=NC1(C)C | 5.33 |
| CCOC(=O)c1ccc(N2C(N)=NC(N)=NC2(C)C)cc1 | 4.42 |
| CC1(C)N=C(N)N=C(N)N1c1cccc([N+](=O)[O-])c1 | 5.51 |
| CC1(C)N=C(N)N=C(N)N1Cc1ccccc1 | 4.47 |
| CC1(C)N=C(N)N=C(N)N1c1ccc(C#N)cc1 | 4.04 |
| Nc1ncc(Cc2ccc(OC(F)(F)F)cc2)c(N)n1 | 6.57 |
| CC1(C)N=C(N)N=C(N)N1CCc1ccccc1 | 5.42 |
| CC1(C)N=C(N)N=C(N)N1c1ccccc1 | 5.52 |
| CN1C(N)=NC(N)=NC1(C)C | 4.32 |
| CC1(C)N=C(N)N=C(N)N1c1ccc(Cl)c(Cl)c1 | 6.8 |

Test system: not given
Assay: not given
Settings: octanol/water

| SMILES | logP |
| --- | --- |
| NC(N)=S [THIOUREA] | -1.06 |

Test system: not listed separately
Assay: physchem
Settings: octanol/water

| SMILES | logP |
| --- | --- |
| Cc1cccc([N+](C)(C)C)c1 | -2.31 |
| N=C=N [CARBIMIDE] | -0.5 |
| CCOCCO [2-ETHOXYETHANOL] | -0.54 |
| O=[N+]([O-])CCO | -0.42 |
| CCOC(C)=O [ETHYL ACETATE] | 0.7 |
| OCC(F)(F)F [TRIFLUOROETHANOL] | 0.41 |
| CI [IODOMETHANE] | 1.51 |
| COC(C)=O [ACETIC ACID METHYL ESTER] | 0.18 |
| NC(=O)CBr | -0.52 |
| CBr [BROMOMETHANE] | 1.19 |
| FC(F)(Cl)C(F)(F)Cl [DICHLOROTETRAFLUOROETHANE] | 2.82 |
| FC(F)(F)C(F)(F)F | 2 |
| CC#CC | 1.46 |
| C=C=C | 1.45 |
| CCN [ETHYLAMINE] | -0.13 |
| CC(C)N(N=O)C(C)C | 1.63 |
| CNC(C)=O | -1.05 |
| CSc1ccccc1 | 2.74 |
| NC(N)=O [UREA] | -1.09 |
| O=CO [FORMIC ACID] | -0.54 |
| COC [METHOXYMETHANE] | 0.1 |
| O=C(O)CS [THIOGLYCOLIC ACID] | 0.09 |
| CN [METHYLAMINE] | -0.57 |
| C#C [ETHYNE] | 0.37 |
| O=C(O)CBr [BROMOACETIC ACID] | 0.41 |

| SMILES | logP |
| --- | --- |
| CC(F)F | 0.75 |
| Clc1ccccc1 [CHLOROBENZENE] | 2.46 |
| O=NN(CCF)C(=O)NCCCl | 0.95 |
| C1=CCOC1 | 0.46 |
| C=CCC | 2.4 |
| NC(=O)C(F)(F)F [TRIFLUOROACETAMIDE] | 0.12 |
| OCC(Cl)Cl | 0.37 |
| Sc1ccccc1 [BENZENETHIOL] | 2.52 |
| Nc1cccc(Cl)c1 [3-CHLOROANILINE] | 1.88 |
| CO [METHYL ALCOHOL] | -0.71 |
| C=CC [PROPENE] | 1.77 |
| ClCCl [METHYLENE CHLORIDE] | 1.25 |
| CC[N+](=O)[O-] [NITROETHANE] | 0.18 |
| Oc1cccc(I)c1 | 3 |
| O=[N+]([O-])c1cccc(I)c1 | 2.94 |
| CCCCCF | 2.33 |
| ClC(Cl)=C(Cl)Cl [TETRACHLOROETHYLENE] | 2.6 |
| CS(=O)(=O)c1ccccc1 [METHYLPHENYLSULFONE] | 0.48 |
| CC(O)CN (configuration not stated) | -0.96 |
| CN(N=O)C(N)=O [N-METHYL-N-NITROSUREA] | -0.16 |
| CC(Cl)(Cl)Cl [TRICHLOROETHANE] | 2.49 |
| O=Nc1ccccc1 [NITROSOBENZENE] | 2.01 |
| CC(C)N [ISOPROPYLAMINE] | 0.26 |
| C=C | 1.13 |
| C=C(F)F | 1.24 |

| SMILES | logP |
| --- | --- |
| C[N+](C)(C)CCI | -3 |
| CN(C)N=O [N-NITROSODIMETHYLAMINE] | -0.57 |
| CC#N [ACETONITRILE] | -0.34 |
| FC(F)Cl | 1.08 |
| O=Nc1ccc(O)c(C(=O)O)c1 | 2.34 |
| NC(=O)C(Cl)(Cl)Cl | 1.04 |
| C#CC [PROPYNE] | 0.94 |
| CF [FLUOROMETHANE] | 0.51 |
| FCF | 0.2 |
| C=COCC | 1.04 |
| CCCl [ETHYL CHLORIDE] | 1.43 |
| C=CC#N [ACRYLONITRILE] | -0.92 |
| FC(Cl)Cl | 1.55 |
| CCOCC [ETHER] | 0.77 |
| Brc1ccncc1 | 1.54 |
| COc1ccccc1 [ANISOLE] | 2.08 |
| Brc1ccccn1 | 1.38 |
| CCNC(N)=S | -0.66 |
| O=c1[nH]cc(I)c(=O)[nH]1 | 0.04 |
| C[S+]([O-])c1ccccc1 (configuration not stated) [METHYLPHENYLSULFOXIDE] | 0.55 |
| OCC(Cl)(Cl)Cl [TRICHLORETHANOL] | 1.42 |
| ClC=C(Cl)Cl [TRICHLOROETHYLENE] | 2.29 |
| CCSCC [DIETHYL SULFIDE] | 1.95 |
